Assay results reported in patent US6331610A, “Method for treating AIDS and HIV infection using select peptides from the beta subunit of human chorionic gonadotropin” (priority 1997, dated 2001).
“Also recorded” adds a separate entry of the source.

How the values were obtained:
MT-4 cells = details: 100 ng/ml and concentrations up to 1,000-fold higher
Description: MT-4 T lymphocytes (5×10^4 cells/ml) were seeded in 96well plates and exposed to IIIB strain of HIV-1 (at MOI equal to 100 infectious doses) in the presence of ten-fold, serial dilutions of hCG peptides (range 100 mcg-1 ng per ml). […] The tests were repeated three times with duplicates for each dilution of an individual peptide. All cultures were grown in RPMI-1640/10% FBS medium supplemented witi L-glutamine and penicillin/streptomycin. The culture plates were kept in a humidified incubator with 5% CO2 at 37° C. […] This difference in the survival pattern, indicative of the antiviral activity, was quantitated by tetrazolium salt XTT assay. This assay is based on the rationale that the viability of MT-4 correlates directly with the activity of mitochondrial hydrogenases converting XTT into optically dense formazan dye. […] At the appropriate time 1 mg/ml of XTT (Sigma, St Louis, Mo.) was nixed with 1% w/v phenazine methosulfate (Aldrich, Milwaukee, Wis.) and 20 mcl of the mixture was added to the wells for 4 hours. The optical density of formazan was then determined in a plate reader at 450 nm with reference filter at 620 nm. The proportion of surviving MT-4 cells treated with hCG peptides was calculated as a function of the viability of mock-infected cells in relation to positive control wells containing untreated cells dead from exposure to HIV.

IIIB strain of HIV-1 = assay: Anti-HIV effect: protection of MT-4 T lymphocytes from HIV-caused cell death (XTT assay); format: cell-based; details: MT-4, HIV-1 IIIB, 100 mcg-1 ng per ml, 5-7 days
Description: Viability=100%×[(ODT)-(ODD)]/[(ODM)-(ODD)]
Where ODT is optical density values of culture wells treated with test peptides; ODM optical density of mock-infected cells; ODD light absorbance values of untreated cells dead from exposure to HIV.
The serial ten-fold dilutions (100 mcg-1 ng per ml) of 6 different synthetic peptides representing N-terminal and core region of hCG were tested for their effect on HIV replication (FIG. 1). […] In these experiments the viability of MT4 was determined after 5-7 days of continuous presence of the virus and hCG peptide fragment in the target cell culture.

Compound	toxicity to cells employed in the assay (MT-4 cells)	anti-HIV effect (in words) (IIIB strain of HIV-1)
CC[C@H](C)[C@H](NC(=O)[C@@H]1CCCN1C(=O)[C@@H](NC(=O)[C@H](CC(=O)O)NC(=O)[C@H](CO)NC(=O)[C@@H]1CCCN1C(=O)CNC(=O)[C@@H]1CCCN1C(=O)[C@H](CC(C)C)NC(=O)[C@H](CCCNC(=N)N)NC(=O)[C@H](CO)NC(=O)[C@@H]1CCCN1C(=O)[C@H](CO)NC(=O)[C@@H]1CCCN1C(=O)[C@H](CC(C)C)NC(=O)[C@H](CO)NC(=O)[C@@H]1CCCN1C(=O)[C@@H]1CCCN1C(=O)[C@@H]1CCCN1C(=O)[C@H](C)NC(=O)[C@H](CCCCN)NC(=O)[C@H](CO)NC(=O)[C@H](CO)NC(=O)[C@H](CO)NC(=O)[C@H](CO)NC(=O)[C@H](CC(=O)O)NC(=O)[C@H](CCC(N)=O)NC(=O)[C@H](Cc1ccccc1)NC(=O)[C@H](CCCNC(=N)N)NC(=O)[C@@H]1CCCN1C(=O)[C@H](CC(=O)O)NC(=O)[C@H](CC(=O)O)NC(=O)[C@H](CS)NC(=O)[C@@H](NC(=O)[C@H](CC(C)C)NC(=O)[C@@H]1CCCN1C(=O)[C@@H](N)Cc1c[nH]cn1)[C@@H](C)O)[C@@H](C)O)C(=O)N[C@@H](CC(C)C)C(=O)N1CCC[C@H]1C(=O)N[C@@H](CCC(N)=O)C(=O)O [CTP of hCG]	not toxic	
C100 GGPKDHPLTC110 DD (CGGPKDHPLTCDD) [compound 7]		active; also recorded: restricted effect
K20 EGCPVCITVN30 TT (KEGCPVCITVNTT) [peptide #1]		active at nanogram doses
